Data on three compounds can be found in patent publication US12558324B2, “Application of R-ketamine and salt thereof as pharmaceuticals” (National University Corporation Chiba University, priority 2013, dated 2026).

Where only a bound is given, the exact number is not on record here.

Data set [1] deals with Control C57/B6 mice. The experiment in a line: Conditioned place preference test in control mice (dependence). The note with it: injected on day 4, 6, 8, evaluation on day 11, vs saline. Here is the method: 15-minute habituation was performed for 3 days. Then, 30-minute conditioning was performed on day 4 to day 10, and a behavioral evaluation test was performed on day 11. Saline was injected on day 5, day 7, and day 9. […] In each of the groups, the injection was performed three times, i.e., on day 4, day 6, and day 8. Saline means a group injected with saline. In the group, the injection was performed three times, i.e., on day 5, day 7, and day 9.
The place preference test was performed using a conditioned place preference test apparatus (BrainSienceIdea Co., Ltd., Osaka, Japan).

The subject of data set [2] is treatment-resistant patients with MDD. The conditions noted are these: cited from earlier work; for effective oral dose in patients with depression: Non Patent Literatures 15 and 16.
Data set [3] relates to treatment-resistant obsessive-compulsive disorder and treatment-resistant posttraumatic stress disorder. The note with it: treatment-resistant patients; Non Patent Literatures 6 to 8; cited from earlier work.
Data set [4] has as its system Control C57/B6 mice. Nature of the data set: Locomotion-enhancing effect in control mice (side effect). The conditions noted are these: for locomotion (count/10 min) after injection: vs saline. The data set is classed as in vivo. As to the method:
An effect of ketamine on the locomotion of mice was tested using SCANET MV-40 ([…] Co., Ltd., Toyama, Japan). Specifically, the locomotion was measured for a total of 180 minutes, i.e., 60 minutes before injection to 120 minutes after injection, and calculated as a locomotion per 10 minutes.

In a further data set the test system is healthy volunteers. The note with it: Non Patent Literature 13, cited from earlier work; for cerebral metabolic rates of glucose (CMRglu), PET: intravenous infusion of 15 mg for 5 min, then 0.014 to 0.02 mg/kg/min for 53 min (S), equimolar doses (R).
For data set [5] the following is noted: known property of both isomers; cited from earlier work.
Data set [6] deals with mice exposed neonatally to DEX. Nature of the data set: Tail suspension test (TST) in DEX-treated mice. The conditions noted are these: for immobility time in the TST: DEX-treated juvenile mice, 10 mg/kg i.p. single injection, vs saline.
Description: (§1) On the final day of this period, the females were placed in isolation and checked daily around the expected delivery day. The day of birth was defined as day 0. The mice were injected intraperitoneally with DEX (Wako Pure Chemical Industries, Ltd., Tokyo, Japan) dissolved in saline on day 1, day 2, and day 3 at doses of 0.5 mg/kg body weight, 0.3 mg/kg body weight, and 0.1 mg/kg body weight, respectively. In addition, normal controls were injected with equal volumes (10 ml/kg) of saline.
(§2) The TST was performed as described below. […] The FST was performed as described below. […] The cages were cleaned between testing session.
Data set [7] has as its system mice exposed neonatally to DEX. Nature of the data set: Forced swimming test (FST) in DEX-treated mice. The conditions noted are these: for immobility time in the FST: DEX-treated juvenile mice, 10 mg/kg i.p. single injection, vs saline.
Description: as §1, §2
The test system of data set [8] is Control C57/B6 mice. Nature of the data set: Prepulse inhibition test in control mice (side effect). The conditions noted are these: 5, 10, or 20 mg/kg, prepulses 69, 73, 77, 81 dB before 110-dB pulse, vs saline.
Description: PP69, PP73, PP77, and PP81 mean that stimuli at 69, 73, 77, and 81 dB for more than 20 milliseconds were presented 100 milliseconds before a 110-dB pulse, respectively. Data analysis was performed by Wilks Lambda, which is multivariate analysis of variance.
The prepulse inhibition test was performed using a startle response system (SR-LAB, SanDiego Instruments, San Diego, CA, United States).
Data set [9] concerns social defeat stress mice. The experiment in a line: Tail suspension test (TST) in social defeat stress mice. The note with it: for immobility time in the TST: 10 mg/kg i.p. single injection, vs saline; for antidepressant effects compared to S(+)-ketamine, TST: 10 mg/kg i.p.
Description: as §2
Data set [10] relates to social defeat stress mice. The experiment in a line: Forced swimming test (FST) in social defeat stress mice. The conditions noted are these: for immobility time in the FST: 10 mg/kg i.p. single injection, vs saline; for antidepressant effects compared to S(+)-ketamine, FST: 10 mg/kg i.p.
Description: as §2
For data set [11], the system named is social defeat stress mice. The experiment in a line: 1% sucrose preference test (SPT) in social defeat stress mice. The note with it: for sucrose consumption preference in the SPT: 10 mg/kg i.p. single injection, vs saline.
Description: as §2
The conditions of data set [12]: Non Patent Literature 12; cited from earlier work.
For data set [13] the following is noted: Non Patent Literature 12; cited from earlier work. The source holds these as a separate data set.

In the case of `CNC1(c2ccccc2Cl)CCCCC1=O.Cl` (racemic) [RS(+/−)-ketamine, ketamine hydrochloride], in the data set on Control C57/B6 mice [1] (10 mg/kg), the “conditioned place preference test score (CPP score)” value was “significantly increased the CPP score”. Besides, in data set [2] (Non Patent Literature 9), the “effect on suicide ideation” value was “effect of inhibiting suicide ideation”. In data set [2] (effects may last, Non Patent Literatures 3, 4, and 11), the “duration of clinical antidepressant effects (other reports)” value is at least 2 weeks. Also, the “antidepressant effect of intranasal administration” value in data set [2] (intranasal, treatment-resistant patients with MDD, Patent Literature 1 and Non Patent Literature 17) is “showed antidepressant effect”. In data set [2], the “effective oral dose in patients with depression” value is 0.5 mg/kg. Further, the “duration of clinical antidepressant effects” value in data set [2] (starting from several hours after single administration) was 1 to 2 days. The “antidepressant effects in patients” value in data set [2] (treatment-resistant patients with MDD and depressive symptoms of treatment-resistant bipolar disorder, Non Patent Literatures 3 to 5) is “rapid and robust antidepressant effects”. The “effect in obsessive-compulsive disorder and PTSD” value in [3] is “effective”.

Take `CN[C@@]1(c2ccccc2Cl)CCCCC1=O.Cl` [R(−)-ketamine, R(−)-ketamine hydrochloride]: the “locomotion (count/10 min) after injection” value with Control C57/B6 mice [4] (5, 10, or 20 mg/kg, up to 120 minutes after injection) was “did not affect the locomotion”. Further, in the data set on Control C57/B6 mice [1] (5, 10, or 20 mg/kg), the “conditioned place preference test score (CPP score)” value is recorded as “did not increase the CPP score”. The “psychotic symptoms in PET study” value with healthy volunteers (doses equimolar to psychotomimetic doses of S(+)-ketamine) is listed as “did not produce psychotic symptoms”. In the data set with healthy volunteers, the “cerebral metabolic rates of glucose (CMRglu), PET” value was “tended to decrease CMRglu across brain regions”. For the same compound, in data set [5], the in vivo clearance result is listed as “rapid in vivo clearance”. In addition, the “immobility time in the TST” value is “markedly reduced the immobility time” in data set [6] (27 hours after injection), “significantly reduced the immobility time” in data set [6] (7 days after injection), “markedly reduced the immobility time” in data set [9] (2 days after injection) and “significantly reduced the immobility time” in data set [9] (7 days after injection). Moreover, the “antidepressant effects compared to S(+)-ketamine, TST” value in [6] (DEX-treated mice, 10 mg/kg i.p., 27 hours after injection, no significant difference) is on record as “slightly high antidepressant effects as compared to those of S(+)-ketamine”; in [9] (2 days after injection) it was “significant high antidepressant effects as compared to those of S(+)-ketamine”; in data set [9] (7 days after injection), “significantly high antidepressant effects as compared to S(+)-ketamine”. The “immobility time in the FST” value was “markedly reduced the immobility time” in data set [7] (29 hours after injection), “significantly reduced the immobility time” in data set [7] (7 days after injection), “markedly reduced the immobility time” in data set [10] (2 days after injection) and “significantly reduced the immobility time” in data set [10] (7 days after injection). The “antidepressant effects compared to S(+)-ketamine, FST” value in data set [7] (DEX-treated mice, 10 mg/kg i.p., 29 hours after injection, no significant difference) is reported as “slightly high antidepressant effects as compared to those of S(+)-ketamine”; in [10] (2 days after injection), “significant high antidepressant effects as compared to those of S(+)-ketamine”; in [10] (7 days after injection), “significantly high antidepressant effects as compared to S(+)-ketamine”. Besides, the “difference between R(−)-ketamine and S(+)-ketamine, FST immobility time” value in [7] (DEX-treated mice, 10 mg/kg i.p., 7 days after injection) is recorded as “statistically significant”. In the data set with Control C57/B6 mice [8], the prepulse inhibition entry is reported as “did not disrupt prepulse inhibition”. Besides, the “sucrose consumption preference in the SPT” value in data set [11] (1 day after injection) was “the sucrose consumption preference significantly increased”; in data set [11] (6 days after injection), “significantly restored the sucrose consumption preference”. Moreover, the “antidepressant effects compared to S(+)-ketamine, SPT” value in data set [11] (10 mg/kg i.p., 1 day after injection) was “more potent than those of S(+)-ketamine”. In [11] (10 mg/kg i.p., 6 days after injection), the “difference between R(−)-ketamine and S(+)-ketamine, SPT” value is given as “statistically significant”.

On to `CN[C@]1(c2ccccc2Cl)CCCCC1=O.Cl` [S(+)-ketamine, S(+)-ketamine hydrochloride], for which, in the data set on Control C57/B6 mice [4] (10 mg/kg or 20 mg/kg), the “time after injection at which enhanced locomotion returned to a normal value” stood at 30 min. Besides, in the data set on Control C57/B6 mice [4] (10 mg/kg or 20 mg/kg, 10 minutes and 20 minutes after the injection), the “locomotion (count/10 min) after injection” value is “significant increase in locomotion”. Besides, the “conditioned place preference test score (CPP score)” value in the data set with Control C57/B6 mice [1] (5, 10, or 20 mg/kg) was “increased the CPP score in a dose-dependent manner”. Also, the “anesthetic effect as compared to R-isomer” value in data set [12] was 3- to 4 fold. Also, the “psychotomimetic side effects compared to R-isomer” value in data set [13] was “greater psychotomimetic side effects than R-isomer”. Further, in [2] (0.25 mg/kg, i.v., treatment-resistant patients with MDD, case report, Non Patent Literature 14), the “antidepressant effects compared to RS(+/−)-ketamine (0.5 mg/kg, i.v.)” value was “weaker than those of RS(+/−)-ketamine”. Besides, the “effective oral dose in patients with depression” value in data set [2] is given as 1.25 mg/kg. The “cerebral metabolic rates of glucose (CMRglu), PET” value with healthy volunteers was “increased cerebral metabolic rates of glucose”. The “immobility time in the TST” value was “markedly reduced the immobility time” in [6] (27 hours after injection), “did not reduce the immobility time” in data set [6] (7 days after injection), “markedly reduced the immobility time” in data set [9] (2 days after injection) and “significantly reduced the immobility time” in [9] (7 days after injection). In addition, the “immobility time in the FST” value in [7] (29 hours after injection) is “markedly reduced the immobility time”; in [7] (7 days after injection), “did not reduce the immobility time”; in data set [10] (2 days after injection), “markedly reduced the immobility time”; in [10] (7 days after injection) it was “significantly reduced the immobility time”. Besides, in the data set on Control C57/B6 mice [8], the prepulse inhibition entry is “disrupted prepulse inhibition in a dose-dependent manner”. The “sucrose consumption preference in the SPT” value is given as “the sucrose consumption preference significantly increased” in [11] (1 day after injection) and “significantly restored the sucrose consumption preference” in [11] (6 days after injection).
